Where “and” joins values, the source holds several entries; their conditions need not be identical. Equal entries are not always repeated. Numbered stars: 1 amine (or outer) side, 2 acyl side, 3 side chain; on linkers, the order of the positions; unused ones are H or OH. Bridge positions count the residues as written; N and C are the ends. Square brackets hold non-standard residues; d marks the D form. Peptide text beside a SMILES is read from it. I, II: the chains in the order shown. Actinocin(9to1) = Cc1c2oc3c(C)ccc(C(=O)[*:1])c3nc-2c(C(=O)[*:2])c(N)c1=O; aThr = C[C@H](O)[C@H](N)C(=O)O; NMeV = CN[C@H](C(=O)O)C(C)C; Sar = CNCC(=O)O

The assay has as its system Swiss mice, Sarcoma 180 sc, mean tumor weight T/C. Nature of the assay: NCI In Vivo Anticancer Drug Screen. Data for tumor model Sarcoma 180 (subcutaneous) in Swiss mice. The conditions noted are these: endpoint: mean tumor weight, higher = larger tumour. The gist of the method: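 Tumor-bearing mice, transplantable tumor; readout survival or tumor size; result = T/C, treated vs vehicle control.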

For the compound `Cc1c2oc3c(C)ccc(C(=O)N[C@@H]4C(=O)N[C@H](C(C)C)C(=O)N5CCC[C@H]5C(=O)N(C)CC(=O)N(C)[C@@H](C(C)C)C(=O)O[C@H]4C)c3nc-2c(C(=O)N[C@@H]2C(=O)N[C@H](C(C)C)C(=O)N3CCC[C@H]3C(=O)N(C)CC(=O)N(C)[C@@H](C(C)C)C(=O)O[C@H]2C)c(N)c1=O` (I: [aThr][dV]P[Sar][NMeV] / II: [aThr][dV]P[Sar][NMeV]; ester I:1-I:C, II:1-II:C; linker I:N-II:N via Actinocin(9to1)), the T/C is 105 % of control (dose: 4.0 mg/kg/injection, schedule: Q#A X014 (ip), vehicle: carboxymethylcellulose (CMC)); 71 % of control (dose: 7.5 mg/kg/injection, schedule: Q#A X014 (ip), vehicle: carboxymethylcellulose (CMC)); 70 % of control (dose: 12.0 mg/kg/injection, schedule: Q#A X014 (ip), vehicle: carboxymethylcellulose (CMC)); 47 % of control and 71 % of control (dose: 15.0 mg/kg/injection, schedule: Q#A X014 (ip), vehicle: carboxymethylcellulose (CMC)); 51 % of control (dose: 20.0 mg/kg/injection, schedule: Q#A X014 (ip), vehicle: carboxymethylcellulose (CMC)); 13 % of control and 24 % of control (dose: 30.0 mg/kg/injection, schedule: Q#A X014 (ip), vehicle: carboxymethylcellulose (CMC)).

With `CC(C)CC(C)(C[N+](=O)[O-])C[N+](=O)[O-]`, the T/C (dose: 4.0 mg/kg/injection, schedule: Q01DX007 (ip), vehicle: saline) is 93 % of control.

Regarding `C=CCn1cnc2c(=S)nc[nH]c21`, the T/C (dose: 31.0 mg/kg/injection, schedule: Q01DX007 (ip), vehicle: carboxymethylcellulose (CMC)) is 86 % of control and the T/C (dose: 62.0 mg/kg/injection, schedule: Q01DX007 (ip), vehicle: carboxymethylcellulose (CMC)) was 54 % of control.

As for `CCSCCC(N)C(=O)O` (centres undefined), the T/C is 80 % of control (dose: 9.37 mg/kg/injection, schedule: Q#A X014 (ip), vehicle: carboxymethylcellulose (CMC)); 115 % of control (dose: 18.2 mg/kg/injection, schedule: Q01DX007 (ip), vehicle: carboxymethylcellulose (CMC)); 116 % of control (dose: 18.75 mg/kg/injection, schedule: Q#A X014 (ip), vehicle: carboxymethylcellulose (CMC)); 102 % of control (dose: 25.0 mg/kg/injection, schedule: Q01DX007 (ip), vehicle: carboxymethylcellulose (CMC)); 98 % of control (dose: 36.3 mg/kg/injection, schedule: Q01DX007 (ip), vehicle: carboxymethylcellulose (CMC)); 40 % of control (dose: 37.5 mg/kg/injection, schedule: Q#A X014 (ip), vehicle: carboxymethylcellulose (CMC)). In addition, the T/C is 80 % of control (dose: 50.0 mg/kg/injection, schedule: Q01DX007 (ip), vehicle: carboxymethylcellulose (CMC)); 77 % of control (dose: 72.5 mg/kg/injection, schedule: Q01DX007 (ip), vehicle: carboxymethylcellulose (CMC)); 36 % of control (dose: 75.0 mg/kg/injection, schedule: Q#A X014 (ip), vehicle: carboxymethylcellulose (CMC)); 106 % of control (dose: 90.0 mg/kg/injection, schedule: Q01DX007 (ip), vehicle: carboxymethylcellulose (CMC)); 111 % of control (dose: 100.0 mg/kg/injection, schedule: Q01DX007 (ip), vehicle: carboxymethylcellulose (CMC)); 98 % of control (dose: 108.0 mg/kg/injection, schedule: Q01DX007 (ip), vehicle: carboxymethylcellulose (CMC)). For the same compound, the T/C runs as follows: (dose: 145.0 mg/kg/injection, schedule: Q01DX007 (ip), vehicle: carboxymethylcellulose (CMC)) 108 % of control; (dose: 216.0 mg/kg/injection, schedule: Q01DX007 (ip), vehicle: carboxymethylcellulose (CMC)) 107 % of control; (dose: 432.0 mg/kg/injection, schedule: Q01DX007 (ip), vehicle: carboxymethylcellulose (CMC)) 47 % of control.

With `CN(C)[C@@H]1C(=O)C(C(N)=O)=C(O)[C@@]2(O)C(=O)C3=C(O)c4c(O)cccc4C[C@H]3C[C@@H]12`, the T/C (dose: 20.0 mg/kg/injection, schedule: Q#A X014 (ip), vehicle: other) was 64 % of control; the T/C (dose: 30.0 mg/kg/injection, schedule: Q#A X014 (ip), vehicle: other) is 61 % of control; the T/C (dose: 45.0 mg/kg/injection, schedule: Q#A X014 (ip), vehicle: other) is 31 % of control.

On to `CC(C)CC(C#N)C(N)=O` (centres undefined), for which the T/C is 108 % of control (dose: 7.5 mg/kg/injection, schedule: Q01DX007 (ip), vehicle: methylcellulose (MC)) and 96 % of control (dose: 30.0 mg/kg/injection, schedule: Q01DX007 (ip), vehicle: methylcellulose (MC)).

Consider `CC[C@@H](O)C[C@H]1CCC[C@@]2(C[C@@H]3OC(=O)/C=C/[C@@](C)(O)[C@@H](O)[C@H](C)[C@@H](O)[C@H](OC4CCC(N(C)C)C(C)O4)[C@@H](O)[C@](C)(O)CCCCC/C=C/[C@@H]4CC(C)(C)O[C@@]4(O)C[C@H](O2)[C@H]3C)O1` (some centres undefined), for which the T/C by setting is: (dose: 0.15 mg/kg/injection, schedule: Q01DX007 (sc), vehicle: steriod suspending solution) 95 % of control; (dose: 0.23 mg/kg/injection, schedule: Q01DX007 (sc), vehicle: steriod suspending solution) 113 % of control; (dose: 0.34 mg/kg/injection, schedule: Q01DX007 (sc), vehicle: steriod suspending solution) 118 % of control.

Regarding `CCOc1ccc2c(c1)CC[C@@H]1[C@@H]2CC[C@@]2(C)[C@H]1CC[C@]2(C)O`, the T/C is 92 % of control (dose: 0.5 mg/kg/injection, schedule: Q#A X014 (sc), vehicle: steriod suspending solution); 79 % of control (dose: 5.0 mg/kg/injection, schedule: Q#A X014 (sc), vehicle: steriod suspending solution); 72 % of control (dose: 50.0 mg/kg/injection, schedule: Q#A X014 (sc), vehicle: steriod suspending solution).

`CN(C)Cc1c[nH]c2ccccc12`: the T/C (dose: 62.5 mg/kg/injection, schedule: Q01DX007 (ip), vehicle: carboxymethylcellulose (CMC)) was 69 % of control.

With `O=C1CCCCC1C(=O)C(F)(F)F` (centres undefined), the T/C was 64 % of control (dose: 27.75 mg/kg/injection, schedule: Q#A X014 (ip), vehicle: methylcellulose (MC)); 64 % of control (dose: 27.75 mg/kg/injection, schedule: Q#A X014 (ip), vehicle: saline); 79 % of control (dose: 41.65 mg/kg/injection, schedule: Q#A X014 (ip), vehicle: methylcellulose (MC)); 81 % of control (dose: 41.65 mg/kg/injection, schedule: Q#A X014 (ip), vehicle: saline); 61 % of control (dose: 55.0 mg/kg/injection, schedule: Q01DX007 (ip), vehicle: saline); 34 % of control (dose: 62.5 mg/kg/injection, schedule: Q#A X014 (ip), vehicle: methylcellulose (MC)). In addition, the T/C was 28 % of control (dose: 62.5 mg/kg/injection, schedule: Q#A X014 (ip), vehicle: saline); 44 % of control (dose: 83.0 mg/kg/injection, schedule: Q01DX007 (ip), vehicle: saline); 35 % of control and 52 % of control (dose: 93.75 mg/kg/injection, schedule: Q#A X014 (ip), vehicle: methylcellulose (MC)); 37 % of control (dose: 93.75 mg/kg/injection, schedule: Q#A X014 (ip), vehicle: saline); 40 % of control (dose: 110.0 mg/kg/injection, schedule: Q02DX004 (ip), vehicle: saline); 62 % of control (dose: 125.0 mg/kg/injection, schedule: Q01DX007 (ip), vehicle: saline). The T/C (dose: 165.0 mg/kg/injection, schedule: Q03DX003 (ip), vehicle: saline) is 63 % of control; the T/C (dose: 166.0 mg/kg/injection, schedule: Q02DX004 (ip), vehicle: saline) is 97 % of control; the T/C (dose: 187.0 mg/kg/injection, schedule: Q01DX007 (ip), vehicle: saline) was 47 % of control; the T/C (dose: 250.0 mg/kg/injection, schedule: Q02DX004 (ip), vehicle: saline) is 82 % of control; the T/C (dose: 352.0 mg/kg/injection, schedule: Q03DX003 (ip), vehicle: carboxymethylcellulose (CMC)) was 83 % of control; the T/C (dose: 561.0 mg/kg/injection, schedule: Q03DX003 (ip), vehicle: saline) is 53 % of control.

As a reminder, the T/C is the result in the treated group divided by that in the control group, in per cent.
